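Growth conditions: 96-well plates. Treatment: test compound, 48 hours, 5 concentrations. Analysis: linear interpolation between bracketing concentrations; unreached endpoints set to highest concentration. GI50 = concentration required for 50% inhibition of growth. TGI: total growth inhibition.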
How the values were obtained:
Assay in all cases: inhibition of tumour cell growth, NCI panel, 48 h; in the data active = GI50 below about 0.43 µM; inactive = the rest
[1] = tested on: HOP-18 NSCLC
[2] = tested on: SN12C renal
[3] = tested on: RXF 393 renal
[4] = tested on: SW-620 colon
[5] = tested on: SNB-19 CNS
[6] = tested on: UACC-257 melanoma
[7] = tested on: SK-MEL-28 melanoma
[8] = tested on: UO-31 renal
[9] = tested on: HCT-116 colon
[10] = tested on: 786-0 renal
[11] = tested on: NCI-H522 lung
[12] = tested on: NCI-H226 lung
[13] = tested on: DMS 273 small cell lung
[14] = tested on: SF-268 CNS
[15] = tested on: KM12 colon
[16] = tested on: MOLT-4 leukemia
[17] = tested on: OVCAR-5 ovarian
[18] = tested on: TK-10 renal
[19] = tested on: K-562 leukemia
[20] = tested on: EKVX NSCLC
[21] = tested on: HOP-92 NSCLC
[22] = tested on: SK-MEL-2 melanoma
[23] = tested on: SK-OV-3 ovarian
[24] = tested on: SF-295 CNS
[25] = tested on: UACC-62 melanoma
[26] = tested on: OVCAR-4 ovarian
[27] = tested on: HCT-15 colon
[28] = tested on: NCI-H460 lung
[29] = tested on: M19-MEL melanoma
[30] = tested on: MALME-3M melanoma
[31] = tested on: DLD-1 colon
[32] = tested on: LXFL 529 NSCLC
[33] = tested on: M14 melanoma
[34] = tested on: SF-539 CNS
[35] = tested on: SNB-78 CNS
[36] = tested on: U251 CNS
[37] = tested on: HOP-62 NSCLC
[38] = tested on: COLO 205 colon
[39] = tested on: A498 renal
[40] = tested on: IGROV1 ovarian
[41] = tested on: OVCAR-8 ovarian
[42] = tested on: SNB-75 CNS
[43] = tested on: ACHN renal
[44] = tested on: SR leukemia
[45] = tested on: HT29 colon
[46] = tested on: NCI-H23 lung
[47] = tested on: CAKI-1 renal
[48] = tested on: KM20L2 colon
[49] = tested on: SK-MEL-5 melanoma
[50] = tested on: HCC-2998 colon
[51] = tested on: A549 NSCLC
[52] = tested on: RPMI-8226 leukemia
[53] = tested on: DMS 114 small cell lung
[54] = tested on: OVCAR-3 ovarian

O=[N+]([O-])c1ccc(C2=NN(c3ccccc3)C[N+](c3ccc(Br)cc3)=N2)cc1
79.8 µM: TGI [3]
> 100 µM: TGI [1] | TGI [2] | TGI [4] | TGI [5] | TGI [6] | TGI [7] | TGI [8] | TGI [9] | TGI [10] | TGI [11] | TGI [12] | TGI [13] | TGI [14] | TGI [15] | TGI [16] | TGI [17] | TGI [18] | TGI [19] | TGI [20] | TGI [21] | TGI [22] | TGI [23] | TGI [24] | TGI [25] | TGI [26] | TGI [27] | TGI [28] | TGI [29] | TGI [30] | TGI [31] | TGI [32] | TGI [33] | TGI [34] | TGI [35] | TGI [36] | TGI [37] | TGI [38] | TGI [39] | TGI [40] | TGI [41] | TGI [42] | TGI [43] | TGI [44] | TGI [45] | TGI [46] | TGI [47] | TGI [48] | TGI [49] | TGI [50] | TGI [51] | TGI [52]

NCCN.NCCN.[Cl-].[O]=[Os+2]=[O]
> 100 µM: TGI [1] | TGI [2] | TGI [3] | TGI [4] | TGI [5] | TGI [7] | TGI [8] | TGI [9] | TGI [10] | TGI [11] | TGI [12] | TGI [14] | TGI [17] | TGI [18] | TGI [20] | TGI [53] | TGI [22] | TGI [24] | TGI [25] | TGI [26] | TGI [27] | TGI [28] | TGI [30] | TGI [31] | TGI [32] | TGI [33] | TGI [34] | TGI [35] | TGI [36] | TGI [38] | TGI [40] | TGI [41] | TGI [42] | TGI [44] | TGI [54] | TGI [46] | TGI [47] | TGI [48] | TGI [50] | TGI [51] | TGI [52]
28.8 µM: TGI [29]
inactive: GI50 [1] > 100 µM | GI50 [2] > 100 µM | GI50 [3] > 100 µM | GI50 [4] > 100 µM | GI50 [5] > 100 µM | GI50 [7] > 100 µM | GI50 [8] > 100 µM | GI50 [9] > 100 µM | GI50 [10] > 100 µM | GI50 [11] > 100 µM | GI50 [12] > 100 µM | GI50 [14] > 100 µM | GI50 [17] > 100 µM | GI50 [18] > 100 µM | GI50 [20] > 100 µM | GI50 [53] > 100 µM | GI50 [22] > 100 µM | GI50 [24] > 100 µM | GI50 [25] > 100 µM | GI50 [26] > 100 µM | GI50 [27] > 100 µM | GI50 [28] > 100 µM | GI50 [29] 12 µM | GI50 [30] > 100 µM | GI50 [31] > 100 µM | GI50 [32] > 100 µM | GI50 [33] > 100 µM | GI50 [34] > 100 µM | GI50 [35] > 100 µM | GI50 [36] > 100 µM | GI50 [38] > 100 µM | GI50 [40] > 100 µM | GI50 [41] > 100 µM | GI50 [42] 71 µM | GI50 [44] 67.4 µM | GI50 [54] > 100 µM | GI50 [46] > 100 µM | GI50 [47] > 100 µM | GI50 [48] > 100 µM | GI50 [50] > 100 µM | GI50 [51] > 100 µM | GI50 [52] > 100 µM

Reference: PubChem BioAssay (NCI)
